The text below walks through data of US20080293699A1, “Inhibitors of thapsigargin-induced cell death” (priority 2007, published 2008).

Assay [1] relates to differentiated CSM14.1 cells. As to the kind of experiment: ATP content assay, thapsigargin-treated differentiated CSM14.1 cells. Format: cell-based, rat. On the procedure:
Of the 26 compounds shown in Table 9, 16 were subsequently confirmed to protect differentiated CSM14.1 cells from TG-induced cell death. For these assays, CSM14.1 cells were differentiated by culture in 2% FBS for 7 days at non-permissive temperature of 39° C. […] CSM14.1 cells were plated at 1,500 cells per well in 96-well plates, and cultured overnight at 32° C. (permissive temperature; FIG. 14, left) or at 39° C. (non-permissive temperature, FIG. 14, right) for 7 days. […] ATP content was measured, and data were expressed as a percentage of control cells treated only with 1% DMSO (mean ±SD; n=3). Two percent FBS was used during differentiation, but all assays were performed in 10% FBS.
For PC12, cells were stimulated with 20 ng/ml NGF for five days; for C17.2, cells were stimulated with serum reduction, and 1% N2 incubation for three days; for CSM14.1, cells were cultured at 39° C. for 5-7 days.
CSM14.1 cells were plated at 1,500 cells per well in 96-well plates and cultured at 39° C. (non-permissive temperature) for 7 days. […] ATP content was measured and data were expressed as a percentage of control cells treated with only 1% DMSO.

The target of the next assay is T1, ASK1 (Homo sapiens, UniProt Q99683).
T1 construct: expressed in transfected cells; host or cells: HEK293T
T1 sequence (Q99683 1-1374): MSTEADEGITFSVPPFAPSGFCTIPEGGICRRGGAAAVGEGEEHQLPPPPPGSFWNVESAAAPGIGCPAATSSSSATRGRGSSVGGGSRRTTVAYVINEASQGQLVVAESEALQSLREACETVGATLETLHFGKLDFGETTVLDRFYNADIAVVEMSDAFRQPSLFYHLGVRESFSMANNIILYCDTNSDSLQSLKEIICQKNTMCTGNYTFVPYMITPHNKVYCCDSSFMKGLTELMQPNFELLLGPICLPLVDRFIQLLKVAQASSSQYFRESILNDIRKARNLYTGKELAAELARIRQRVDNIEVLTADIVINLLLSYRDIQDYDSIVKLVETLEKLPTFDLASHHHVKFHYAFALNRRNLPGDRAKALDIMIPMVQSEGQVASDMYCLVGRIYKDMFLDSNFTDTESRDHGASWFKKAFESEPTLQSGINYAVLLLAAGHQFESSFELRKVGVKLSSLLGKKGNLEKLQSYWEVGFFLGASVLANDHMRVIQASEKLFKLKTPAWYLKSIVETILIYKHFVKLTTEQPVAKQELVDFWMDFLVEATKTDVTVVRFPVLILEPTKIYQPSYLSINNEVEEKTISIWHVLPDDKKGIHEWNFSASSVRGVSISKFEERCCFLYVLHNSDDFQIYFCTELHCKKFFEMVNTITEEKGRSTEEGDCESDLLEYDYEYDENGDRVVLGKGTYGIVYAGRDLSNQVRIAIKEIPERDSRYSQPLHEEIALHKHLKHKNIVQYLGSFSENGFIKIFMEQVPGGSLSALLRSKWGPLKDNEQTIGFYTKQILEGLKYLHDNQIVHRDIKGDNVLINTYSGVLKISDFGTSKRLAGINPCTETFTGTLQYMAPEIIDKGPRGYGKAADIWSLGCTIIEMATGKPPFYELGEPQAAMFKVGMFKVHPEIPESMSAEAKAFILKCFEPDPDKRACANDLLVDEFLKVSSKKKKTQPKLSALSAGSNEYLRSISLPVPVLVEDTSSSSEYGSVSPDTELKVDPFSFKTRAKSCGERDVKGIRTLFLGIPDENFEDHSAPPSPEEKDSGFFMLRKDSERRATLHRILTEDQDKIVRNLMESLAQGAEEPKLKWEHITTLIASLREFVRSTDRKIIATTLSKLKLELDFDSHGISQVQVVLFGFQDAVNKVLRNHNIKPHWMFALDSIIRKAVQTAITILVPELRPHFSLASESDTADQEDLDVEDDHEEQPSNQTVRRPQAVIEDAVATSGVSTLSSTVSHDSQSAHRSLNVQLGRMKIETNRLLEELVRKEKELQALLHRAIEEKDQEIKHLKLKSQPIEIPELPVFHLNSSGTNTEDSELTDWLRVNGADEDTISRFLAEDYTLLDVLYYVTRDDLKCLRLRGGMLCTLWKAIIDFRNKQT
As to the kind of experiment: ASK1 autophosphorylation in vitro kinase assay. Format: biochemical. To be noted: up to 50 μM, listed as CID-2878746. On the procedure: Suppression of thapsigargin-induced phosphorylation of p38MAPK was also measured by a quantitative ELISA-methods, with IC50 for p38MAPK phosphorylation estimated at <5 μM. In contrast, thapsigargin-induced expression of CHOP, expression of ATF4, proteolytic processing of ATF6, phosphorylation of eIF2a (Ser 51), auto-phosphorylation of Ire1a or auto-phosphorylation of ASK1 were not inhibited directly by CID-2878746 at concentrations up to 50 μM tested by in vitro kinase assay using p32-γ-ATP substrate. […] Thapsigargin-induced reductions in phosphorylation of ASK1 at the serine 967 site in ASK1 transfected 293T cells are inhibited by compound 5962123 at concentrations of 50-100 μM, as determined by immunoblotting using anti-phospho-specific (ser 967) antibody, but thapsigargin-induced changes in phosphorylation of ASK1 at ser 83 and thr 845 are not modulated by compound 5962123 at concentrations as high as 100 μM in ASK1-transfected HEK293T cells.

On to `CCN(CC)c1ccc(C2Nc3ccccc3NC3=C2C(=O)CC(c2ccccc2)C3)cc1` (stereo not drawn) [Compound 5962123, 6-(4-diethylaminophenyl)-9-phenyl-5,6,8,9,10,11-hexahydrobenzo[c][1,5]benzodiazepin-7-one], for which the “Protection of differentiated CSM14.1 cells from thapsigargin-induced death” value in assay [1] (compound 25 μM with 10 μM thapsigargin, Salubrinal 100 μM) is reported as “confirmed”. For the same compound, the “Cytoprotective activity, CSM 14.1 diff (Result)” value in assay [1] (thapsigargin 15 μM, compound ≦25 μM) is “+ (+indicates >50% rescue of cell viability relative to untreated cells not exposed to thapsigargin at compound concentration of ≦25 μM)”. Further, the “ASK1 autophosphorylation” value on ASK1 was “not inhibited”.
